ChEMBL document CHEMBL3045878, “Effect of Insect Hormone Related Compounds on the Growth of Insect Cells” (1997)

Assays:
Format in all cases: functional
[1] = Juvenile hormone mimic activity in Spodoptera frugiperda (fall armyworm) Sf21 cells assessed as cell number at 3.7 x 10 '-11 M after 5 days by trypan blue exclusion assay
[2] = Juvenile hormone mimic activity in Spodoptera frugiperda (fall armyworm) Sf21 cells assessed as cell number at 3.7 x 10 '-10 M after 5 days by trypan blue exclusion assay
[3] = Juvenile hormone mimic activity in Spodoptera frugiperda (fall armyworm) Sf21 cells assessed as cell number at 3.7 x 10 '-9 M after 5 days by trypan blue exclusion assay
[4] = Juvenile hormone mimic activity in Spodoptera frugiperda (fall armyworm) Sf21 cells assessed as cell number at 3.7 x 10 '-8 M after 5 days by trypan blue exclusion assay
[5] = Juvenile hormone mimic activity in Spodoptera frugiperda (fall armyworm) Sf21 cells assessed as cell number at 3.7 x 10 '-7 M after 5 days by trypan blue exclusion assay
[6] = Juvenile hormone mimic activity in Spodoptera frugiperda (fall armyworm) Sf21 cells assessed as cell number at 3.7 x 10 '-12 M after 5 days by trypan blue exclusion assay

| Compound | Activity [1] [%] | Activity [2] [%] | Activity [3] [%] | Activity [4] [%] | Activity [5] [%] | Activity [6] [%] |
| --- | --- | --- | --- | --- | --- | --- |
| CC(C)=CCC/C(C)=C/c1cncn1Cc1ccccc1 | 5.5 | 5.5 | 4.9 | 4.2 | 3.3 |  |
| COC(C)(C)CCC[C@H](C)C/C=C/C(C)=C/C(=O)OC(C)C [METHOPRENE] | 6.7 | 6.9 | 6.5 | 6 | 6 | 6.4 |
| CCc1ccc(C(=O)NN(C(=O)c2cc(C)cc(C)c2)C(C)(C)C)cc1 [TEBUFENOZIDE] | 5.4 | 5.6 | 5.7 | 5.1 | 4.3 |  |
